The values below come from PMC10779950, “Binding Free Energy Calculation Based on the Fragment Molecular Orbital Method and Its Application in Designing Novel SHP-2 Allosteric Inhibitors” (International Journal of Molecular Sciences, 2024).

By IC50 is commonly meant the midpoint of a concentration-inhibition curve.

Test [1] concerns SYK. Further details: method as in Schrödinger FEP+ benchmark. To be noted: FEP+ predicted binding free energy, ref Schrödinger FEP+ benchmark; cited from earlier work.
The subject of the next test is THR-β. The experiment in a line: Experimental THR-β activity of agonists taken from Hu et al. It counts as biochemical. To be noted: Table S4, converted from the experimental value.
Another test has as its target T1, SHP2^WT (1–593) (Homo sapiens, UniProt Q06124).
T1 construct: made in house; host or cells: E. coli BL21 Star (DE3), pET30 vector
T1 sequence (Q06124 1-593): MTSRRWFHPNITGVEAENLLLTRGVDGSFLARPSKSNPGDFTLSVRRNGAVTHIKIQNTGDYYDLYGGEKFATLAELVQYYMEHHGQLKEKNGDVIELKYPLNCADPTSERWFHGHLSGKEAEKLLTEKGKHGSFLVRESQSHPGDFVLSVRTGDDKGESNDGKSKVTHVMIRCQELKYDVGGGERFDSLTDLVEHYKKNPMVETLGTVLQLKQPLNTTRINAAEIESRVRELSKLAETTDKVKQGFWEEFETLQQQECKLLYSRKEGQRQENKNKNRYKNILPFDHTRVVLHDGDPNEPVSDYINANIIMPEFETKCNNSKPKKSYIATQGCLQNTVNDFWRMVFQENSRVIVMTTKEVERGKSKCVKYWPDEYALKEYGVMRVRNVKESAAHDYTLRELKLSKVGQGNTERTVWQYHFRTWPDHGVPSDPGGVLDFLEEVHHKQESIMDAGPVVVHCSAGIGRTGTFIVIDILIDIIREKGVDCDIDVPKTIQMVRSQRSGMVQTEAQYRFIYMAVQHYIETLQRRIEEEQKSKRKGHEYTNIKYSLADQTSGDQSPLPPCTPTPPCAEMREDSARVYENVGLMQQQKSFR
In words: SHP-2 prompt fluorescence phosphatase assay (DiFMUP), SHP2^WT. The test is classed as biochemical. As to the method:
Briefly, the constructs were transformed into BL21 Star^TM (DE3) cells and cultured at 37 °C for 3~4 h. Subsequently, the cells with high expression of SHP2 protein were harvested after being induced by IPTG and grown overnight at 18 °C. Cell pellets were resuspended in lysis buffer (25 mM imidazole, 50 mM Tris−HCl, 500 mM NaCl, 2.5 mM MgCl2, 1 mM tris(2-carboxyethyl)phosphine (TCEP), 1 μg/mL DNase1, and complete EDTA-free protease inhibitor) and lysed using Low Temperature Ultrahigh Pressure Continuous Flow Cell Disrupter (JNBIO), followed by ultracentrifugation. The supernatant was collected. Then, the SHP2 was purified from the collected supernatant by using HisTrap HP chelation column, TEV protease, and HiTrap Q FastFlow column.
Then, the mixture was then incubated at 25 °C for 60 min. To initiate the reaction, the surrogate substrate DiFMUP (Invitrogen, cat. no. D6567, Shuzhou, China, 200 μM) was added and incubated at 25 °C for another 30 min. […] Fluorescence signal was detected using a microplate reader (Bio-Tek, Shanghai, China, Synergy2) at Ex/Em = 340/450 nm. Using control-based normalization, normalized IC50 regression curves were fitted to inhibitor dose response curves.

The test system of test [2] is SYK. To be noted: experimental binding free energy, ref Schrödinger FEP+ benchmark; cited from earlier work.
The test system of test [3] is TNKS2. To be noted: experimental binding free energy, ref Schrödinger FEP+ benchmark; cited from earlier work.
Test [4] deals with c-Met. Further details: method as in earlier work. To be noted: FEP+ predicted ΔG from the benchmark; cited from earlier work.
In test [5] the test system is c-Met. More on the design: method as in earlier work. To be noted: Schrödinger FEP+ benchmark; cited from earlier work.
The subject of test [6] is TNKS2. Further details: method as in Schrödinger FEP+ benchmark. To be noted: FEP+ predicted binding free energy, ref Schrödinger FEP+ benchmark; cited from earlier work.

Text for THR-β: In the initial phase of our investigation, we conducted a retrospective evaluation of FMOScore’s performance concerning thyroid hormone receptor β (THR-β) agonists, using a set of 18 compounds taken from the work of Hu et al. [65]

With `CC1(N)CCN(c2cnc(Sc3cccc(Cl)c3Cl)c(N)c2)CC1` [Compound 7, 5-(4-amino-4-methylpiperidin-1-yl)-2-((2,3-dichlorophenyl)thio)pyridin-3-amine], the FEP in the test on SYK [1] is given as -10.29 kcal/mol; with c-Met [4], -9.19 kcal/mol; in the test on TNKS2 [6], -9.01 kcal/mol. In addition, the ΔGexp with THR-β was -7.406 kcal/mol; at SHP2^WT (1–593) (converted from IC50 with ΔGexp ≈ kBTlog IC50) it was -6.747 kcal/mol. Also, the IC50 on SHP2^WT (1–593) (SHP2^WT, DiFMUP substrate, averages of three independent experiments, read-out: SHP-2 IC50) stood at 11.3 ± 1.19 µM. Besides, the “Exp. ΔG” value with SYK [2] is on record as -10.79 kcal/mol; in the test with TNKS2 [3], -8.4 kcal/mol; in the test with c-Met [5] it was -8.73 kcal/mol.
